Data from patent US10072026B2, “Crystalline form of 3-((1R,3s,5S)-3-((7-((5-methyl-1H-pyrazol-3-yl)amino)-1,6-naphthyridin-5-yl)amino)-8-azabicyclo[3.2.1]octan-8-yl)propanenitrile” (priority 2015, dated 2018).
Read-outs that look alike come from different tables or passages of the source.

Legend:
[1] = system: oxazolone-induced colitis; experiment: Mouse model of oxazolone-induced colitis; assay type: in vivo, BALB/C mice; details: mouse, PO, 1, 3, and/or 10 mg/kg BID
Description: Assay 7: Mouse Model of Oxazalone-Induced Colitis
Oxazolone-induced colitis is an experimental model that has a histological resemblance to human ulcerative colitis (Heller et al. Immunology, 2002, 17, 629-638). Adult BALB/C mice from Harlan were used in the assay. On day 1, animals were lightly anesthetized with isoflurane and the hairs between the shoulder were carefully removed before oxazolone (4%, 150 μL, 4:1 acetone:olive oil formulation) or vehicle solution was slowly applied for skin sensitization. Seven days after skin sensitization, the mice were fasted overnight, anesthetized with isoflurane inhalation, and a 1 mL syringe equipped with a 3.5-F catheter, filled with oxazolone solution, was inserted carefully about 4 cm into the colon of the mouse. Following insertion, 50 μL of the oxazolone solution (1%, 1:1 ethanol:water formulation) was injected very slowly (over 30 sec using an injection pump) into the colon. The catheter was removed and the mice were held vertically (head down) for 2 min to ensure that the entire oxazolone solution remained inside the colon. Drug treatment (PO, BID or TID) or vehicle was initiated a day prior to the oxazolone intrarectal (IR) challenge. Two-day post oxazolone intrarectal challenge, the Disease Activity Index (DAI) was assessed by treatment-blinded experimenters for each mouse according to the criteria score: stool consistency score (0, normal; 2, loose; 4, diarrhea), gross bleeding score (0, absence; 2, blood tinged; 4, presence), and weight loss score (0, none; 1, 1%-5%; 2, 5%-10%; 3, 10%-20%; 4, more than 20%); DAI=average of (stool consistency score+gross bleeding score+weight loss score).
Selected compounds of the invention were tested in the assay. Efficacy in the model is evidenced by a decrease in DAI score as compared with the score from vehicle treated animals.

Tyk2 = Tyk2 (Homo sapiens (Human), UniProt P29597); experiment: LanthaScreen JAK biochemical assay (Tyk2); details: for Ki: read-out: Tyk 2 (pKi) (converted)
Tyk2, sequence (P29597 whole entry): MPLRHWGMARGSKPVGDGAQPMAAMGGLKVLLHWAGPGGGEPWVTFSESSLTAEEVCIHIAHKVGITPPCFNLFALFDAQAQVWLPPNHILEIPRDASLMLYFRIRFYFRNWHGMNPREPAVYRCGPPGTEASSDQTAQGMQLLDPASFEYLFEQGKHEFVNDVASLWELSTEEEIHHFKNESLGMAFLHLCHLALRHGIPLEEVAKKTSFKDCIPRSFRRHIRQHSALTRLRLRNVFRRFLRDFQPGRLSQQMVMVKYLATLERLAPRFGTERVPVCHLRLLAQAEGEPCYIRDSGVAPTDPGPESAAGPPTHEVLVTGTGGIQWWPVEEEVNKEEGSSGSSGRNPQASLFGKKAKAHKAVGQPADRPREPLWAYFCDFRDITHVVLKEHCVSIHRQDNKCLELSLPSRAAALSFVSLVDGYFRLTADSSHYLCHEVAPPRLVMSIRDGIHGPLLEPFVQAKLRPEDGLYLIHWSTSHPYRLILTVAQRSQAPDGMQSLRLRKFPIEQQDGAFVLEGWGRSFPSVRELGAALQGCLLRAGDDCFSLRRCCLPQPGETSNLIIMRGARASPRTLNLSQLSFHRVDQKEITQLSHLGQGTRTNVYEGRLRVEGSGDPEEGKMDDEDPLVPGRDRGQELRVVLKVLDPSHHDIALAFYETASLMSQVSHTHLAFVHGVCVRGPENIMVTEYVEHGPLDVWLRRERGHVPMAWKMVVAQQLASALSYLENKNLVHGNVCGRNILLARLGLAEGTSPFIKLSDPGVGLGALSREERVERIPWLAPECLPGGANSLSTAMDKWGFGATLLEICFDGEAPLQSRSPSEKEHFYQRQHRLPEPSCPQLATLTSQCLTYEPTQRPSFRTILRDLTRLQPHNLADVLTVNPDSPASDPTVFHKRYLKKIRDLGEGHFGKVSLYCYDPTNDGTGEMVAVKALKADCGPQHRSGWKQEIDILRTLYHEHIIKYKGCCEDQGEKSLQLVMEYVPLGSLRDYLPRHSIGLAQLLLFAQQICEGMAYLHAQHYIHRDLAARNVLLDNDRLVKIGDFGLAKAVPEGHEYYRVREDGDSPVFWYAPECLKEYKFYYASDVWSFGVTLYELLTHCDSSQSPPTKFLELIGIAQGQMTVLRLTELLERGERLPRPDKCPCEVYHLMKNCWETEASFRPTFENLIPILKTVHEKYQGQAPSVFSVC

[2] = system: IL-13 induced STAT6 phosphorylation in BEAS-2B human lung epithelial cells; experiment: AlphaScreen cellular JAK potency assay, BEAS-2B
[3] = system: IL-4 induced STAT6 phosphorylation in THP-1 human monocytic cells; experiment: Cellular JAK potency assay, THP-1
JAK1 = JAK1 (Homo sapiens (Human), UniProt P23458); experiment: LanthaScreen JAK biochemical assay (JAK1)
JAK1, sequence (P23458 whole entry): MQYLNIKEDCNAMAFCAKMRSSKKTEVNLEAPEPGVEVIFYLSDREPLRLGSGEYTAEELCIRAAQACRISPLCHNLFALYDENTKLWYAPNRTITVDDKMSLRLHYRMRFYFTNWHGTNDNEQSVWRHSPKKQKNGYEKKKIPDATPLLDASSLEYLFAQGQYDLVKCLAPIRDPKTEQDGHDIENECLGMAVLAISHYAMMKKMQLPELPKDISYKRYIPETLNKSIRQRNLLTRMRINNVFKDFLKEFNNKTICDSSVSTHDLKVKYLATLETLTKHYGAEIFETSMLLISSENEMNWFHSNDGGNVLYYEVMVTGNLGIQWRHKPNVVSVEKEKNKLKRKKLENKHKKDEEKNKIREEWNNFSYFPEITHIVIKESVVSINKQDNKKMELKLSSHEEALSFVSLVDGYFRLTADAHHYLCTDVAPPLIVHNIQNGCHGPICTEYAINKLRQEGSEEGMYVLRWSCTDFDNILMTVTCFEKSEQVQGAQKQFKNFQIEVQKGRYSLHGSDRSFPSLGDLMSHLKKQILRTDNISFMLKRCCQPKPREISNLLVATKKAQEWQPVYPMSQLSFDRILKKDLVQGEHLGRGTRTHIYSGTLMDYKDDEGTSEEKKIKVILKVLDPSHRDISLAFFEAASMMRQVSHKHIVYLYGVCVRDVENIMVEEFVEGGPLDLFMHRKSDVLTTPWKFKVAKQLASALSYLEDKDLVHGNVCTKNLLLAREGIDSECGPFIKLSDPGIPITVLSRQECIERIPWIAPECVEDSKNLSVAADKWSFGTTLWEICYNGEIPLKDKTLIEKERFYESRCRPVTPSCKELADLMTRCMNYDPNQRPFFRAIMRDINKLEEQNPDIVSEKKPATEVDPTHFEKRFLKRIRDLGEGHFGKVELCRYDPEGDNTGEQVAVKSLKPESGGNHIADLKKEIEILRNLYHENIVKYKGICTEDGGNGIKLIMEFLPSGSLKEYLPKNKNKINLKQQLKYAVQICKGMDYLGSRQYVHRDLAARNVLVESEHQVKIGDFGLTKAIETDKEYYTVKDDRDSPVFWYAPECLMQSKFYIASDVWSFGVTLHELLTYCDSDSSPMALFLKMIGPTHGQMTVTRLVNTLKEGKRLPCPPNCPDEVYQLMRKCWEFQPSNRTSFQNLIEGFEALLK

JAK3 = JAK3 (Homo sapiens (Human), UniProt P52333); experiment: LanthaScreen JAK biochemical assay (JAK3)
JAK2 = JAK2 (Homo sapiens (Human), UniProt O60674); experiment: LanthaScreen JAK biochemical assay (JAK2)
JAK2, sequence (O60674 whole entry): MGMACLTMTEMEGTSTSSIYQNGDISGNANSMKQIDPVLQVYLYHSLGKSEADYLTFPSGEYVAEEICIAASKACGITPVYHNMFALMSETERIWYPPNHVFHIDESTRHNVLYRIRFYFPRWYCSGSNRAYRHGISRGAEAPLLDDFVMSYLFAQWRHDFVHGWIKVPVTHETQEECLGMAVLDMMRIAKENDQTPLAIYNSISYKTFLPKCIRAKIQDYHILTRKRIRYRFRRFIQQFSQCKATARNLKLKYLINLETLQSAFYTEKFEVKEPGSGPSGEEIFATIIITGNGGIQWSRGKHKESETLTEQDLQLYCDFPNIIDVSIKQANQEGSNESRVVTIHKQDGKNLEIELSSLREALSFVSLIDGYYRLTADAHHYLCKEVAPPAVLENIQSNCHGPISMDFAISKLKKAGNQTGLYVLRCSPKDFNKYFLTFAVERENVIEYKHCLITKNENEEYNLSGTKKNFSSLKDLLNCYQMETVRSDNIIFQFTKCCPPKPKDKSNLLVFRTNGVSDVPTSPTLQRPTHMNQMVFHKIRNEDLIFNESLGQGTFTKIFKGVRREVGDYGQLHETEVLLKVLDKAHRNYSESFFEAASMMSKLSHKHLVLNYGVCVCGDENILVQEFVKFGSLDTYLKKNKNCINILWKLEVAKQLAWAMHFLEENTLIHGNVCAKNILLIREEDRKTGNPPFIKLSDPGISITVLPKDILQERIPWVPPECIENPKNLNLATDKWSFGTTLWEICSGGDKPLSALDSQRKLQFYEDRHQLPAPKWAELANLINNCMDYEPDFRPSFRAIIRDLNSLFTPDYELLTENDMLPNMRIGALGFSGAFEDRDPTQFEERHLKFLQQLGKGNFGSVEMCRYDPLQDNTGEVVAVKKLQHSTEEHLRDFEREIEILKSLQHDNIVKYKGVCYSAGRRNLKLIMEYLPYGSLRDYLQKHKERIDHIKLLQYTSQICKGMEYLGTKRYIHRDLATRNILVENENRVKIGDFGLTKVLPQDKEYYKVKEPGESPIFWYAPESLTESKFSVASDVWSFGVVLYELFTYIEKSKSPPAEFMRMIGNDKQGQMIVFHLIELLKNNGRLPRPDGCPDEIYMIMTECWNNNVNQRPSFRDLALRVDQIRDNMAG

[4] = Homo sapiens, BEAS-2B, read-out: BEAS2B pIC50 (converted)
[5] = Homo sapiens, THP-1, read-out: THP-1 IL4 pIC50 (converted)
[6] = BEAS-2B cells, IL-13 induced STAT6 phosphorylation
[7] = THP-1 cells, IL-4 induced STAT6 phosphorylation
[8] = read-out: JAK 2 (pKi) (converted)
[9] = IL-13 induced STAT6 phosphorylation, BEAS-2B cells
[10] = IL-4 induced STAT6 phosphorylation, THP-1 cells
[11] = read-out: JAK 1 (pKi) (converted)

Structure (SMILES) | decrease in DAI score as compared with vehicle treated animals [1] | IC50 [2, 4] [nM] | IC50 [3, 5] [nM] | JAK 1 (pKi) (JAK1) | JAK 2 (pKi) (JAK2) | also measured
COCCS(=O)(=O)N1[C@@H]2CC[C@H]1C[C@H](Nc1nc(Nc3cc(C)[nH]n3)cc3ncccc13)C2 [Example 6, N^5-((1R,3s,5S)-8-((2-methoxyethyl)sulfonyl)-8-azabicyclo[3.2.1]octan-3-yl)-N^7-(5-methyl-1H-pyrazol-3-yl)-1,6-naphthyridine-5,7-diamine] | statistically significant decrease |  |  |  |  | 
Cc1cc(Nc2cc3ncccc3c(N[C@@H]3C[C@H]4CC[C@@H](C3)N4S(=O)(=O)N3CC(C#N)C3)n2)n[nH]1 [Example 13, 1-(((1R,3s,5S)-3-((7-((5-methyl-1H-pyrazol-3-yl)amino)-1,6-naphthyridin-5-yl)amino)-8-azabicyclo[3.2.1]octan-8-yl)sulfonyl)azetidine-3-carbonitrile] | did not exhibit a statistically significant decrease | 31.6 to 200 | 31.6 to 200 |  |  | Ki (Tyk2): 0.1 to 1 nM
Cc1cnc2cc(Nc3cc(C)[nH]n3)nc(N[C@@H]3C[C@H]4CC[C@@H](C3)N4CCC#N)c2c1 [Example 6-1] |  |  |  | B (B represents a pKi value between 9 and 10 (Ki between 1 nM and 0.1 nM)) | B (B represents a pKi value between 9 and 10 (Ki between 1 nM and 0.1 nM)) | Tyk 2 (pKi) (Tyk2): B (B represents a pKi value between 9 and 10 (Ki between 1 nM and 0.1 nM)); BEAS2B pIC50 [2, 6]: A (A represents a pEC50 value≥7.5 (EC50≤32 nM)); JAK 3 (pKi) (JAK3): C (C represents a pKi value between 7 and 9 (Ki between 100 nM and 1 nM)); THP-1 IL4 pIC50 [3, 7]: A (A represents a pEC50 value≥7.5 (EC50≤32 nM))
COC(=O)c1cnc2cc(Nc3cc(C)[nH]n3)nc(N[C@@H]3C[C@H]4CCC[C@@H](C3)N4CCC#N)c2c1 [Example 6-47] |  |  |  | A (A represents a pKi value≥10 (Ki≤0.1 nM)) | A (A represents a pKi value≥10 (Ki≤0.1 nM)) | Tyk 2 (pKi) (Tyk2): B (B represents a pKi value between 9 and 10 (Ki between 1 nM and 0.1 nM)); BEAS2B pIC50 [2, 6]: A (A represents a pEC50 value≥7.5 (EC50≤32 nM)); JAK 3 (pKi) (JAK3): B (B represents a pKi value between 9 and 10 (Ki between 1 nM and 0.1 nM)); THP-1 IL4 pIC50 [3, 7]: A (A represents a pEC50 value≥7.5 (EC50≤32 nM))
Cc1cc(Nc2cc3ncccc3c(N[C@@H]3C[C@H]4CCC[C@@H](C3)N4C(=O)CN(C)C)n2)n[nH]1 [Example 4, 2-(Dimethylamino)-1-((1R,3s,5S)-3-((7-((5-methyl-1H-pyrazol-3-yl)amino)-1,6-naphthyridin-5-yl)amino)-9-azabicyclo[3.3.1]nonan-9-yl)ethan-1-one] | statistically significant decrease |  | 31.6 to 200 |  |  | Ki (JAK1): 0.1 to 1 nM; Ki (JAK2; [8]): 0.1 to 1 nM
Cc1cc(Nc2cc3ncccc3c(N[C@@H]3C[C@H]4CCC[C@@H](C3)N4S(=O)(=O)CC3CC3)n2)n[nH]1 [Example 4-23] | did not exhibit a statistically significant decrease |  |  |  |  | BEAS2B pIC50 [2, 9]: A (A represents a pEC50 value≥7.5 (EC50≤32 nM)); THP-1 IL4 pIC50 [3, 10]: A (A represents a pEC50 value≥7.5 (EC50≤32 nM))
Cc1cc(Nc2cc3nc(CO)ccc3c(N[C@@H]3C[C@H]4CC[C@@H](C3)N4CCC#N)n2)n[nH]1 [Example 5-11] | did not exhibit a statistically significant decrease |  |  |  | A (A represents a pKi value≥10 (Ki≤0.1 nM)) | BEAS2B pIC50 [2, 9]: B (B represents a pEC50 value between 6.7 and 7.5 (EC50 between 200 nM and 32 nM)); THP-1 IL4 pIC50 [3, 10]: A (A represents a pEC50 value≥7.5 (EC50≤32 nM))
Cc1cc(Nc2cc3ncccc3c(N[C@@H]3C[C@H]4CC[C@@H](C3)N4S(=O)(=O)Cc3ccccc3)n2)n[nH]1 [Example 4-13] | did not exhibit a statistically significant decrease |  |  | B (B represents a pKi value between 9 and 10 (Ki between 1 nM and 0.1 nM)) |  | BEAS2B pIC50 [2, 9]: A (A represents a pEC50 value≥7.5 (EC50≤32 nM)); THP-1 IL4 pIC50 [3, 10]: B (B represents a pEC50 value between 6.7 and 7.5 (EC50 between 200 nM and 32 nM))
Cc1cnc2cc(Nc3cc(C)[nH]n3)nc(N[C@@H]3C[C@H]4CC[C@@H](C3)N4S(C)(=O)=O)c2c1 [Example 6-5] |  | < 31.6 | < 31.6 |  | A (A represents a pKi value≥10 (Ki≤0.1 nM)) | Ki (Tyk2): 0.1 to 1 nM; Ki (JAK1; [11]): 0.1 to 1 nM; Ki (JAK3; read-out: JAK 3 (pKi) (converted)): 1 to 100 nM
Cc1cc(Nc2cc3ncccc3c(N[C@@H]3C[C@H]4CC[C@@H](C3)N4S(=O)(=O)C3CC3)n2)n[nH]1 [Example 4-4] | did not exhibit a statistically significant decrease | < 31.6 | < 31.6 |  |  | Ki (JAK1; [11]): 0.1 to 1 nM; Ki (JAK2): 0.1 to 1 nM
Cc1cc(Nc2cc3ncccc3c(N[C@@H]3C[C@H]4CC[C@@H](C3)N4S(=O)(=O)c3cccnc3)n2)n[nH]1 [Example 3, N^7-(5-methyl-1H-pyrazol-3-yl)-N^5-((1R,3s,5S)-8-(pyridin-3-ylsulfonyl)-8-azabicyclo[3.2.1]octan-3-yl)-1,6-naphthyridine-5,7-diamine] | statistically significant decrease | < 31.6 | 31.6 to 200 |  |  | Ki (JAK1; [11]): 0.1 to 1 nM; Ki (JAK2; [8]): 0.1 to 1 nM
CCC(=O)N1[C@@H]2CC[C@H]1C[C@H](Nc1nc(Nc3cc(C)[nH]n3)cc3ncccc13)C2 [Example 2-1] | did not exhibit a statistically significant decrease | 31.6 to 200 | 31.6 to 200 |  |  | Ki (JAK1; [11]): 0.1 to 1 nM
Cc1cc(Nc2cc3ncccc3c(N[C@@H]3C[C@H]4CCC[C@@H](C3)N4S(=O)(=O)N3CC(C#N)C3)n2)n[nH]1 [Example 11, 1-(((1R,3s,5S)-3-((7-((5-methyl-1H-pyrazol-3-yl)amino)-1,6-naphthyridin-5-yl)amino)-9-azabicyclo[3.3.1]nonan-9-yl)sulfonyl)azetidine-3-carbonitrile] | did not exhibit a statistically significant decrease | < 31.6 | 31.6 to 200 |  |  | 
Cc1cc(Nc2cc3ncccc3c(N[C@@H]3C[C@H]4CCC[C@@H](C3)N4S(=O)(=O)C3CC3)n2)n[nH]1 [Example 4-18] | did not exhibit a statistically significant decrease |  |  | A (A represents a pKi value≥10 (Ki≤0.1 nM)) |  | BEAS2B pIC50 [2, 9]: A (A represents a pEC50 value≥7.5 (EC50≤32 nM)); THP-1 IL4 pIC50 [3, 10]: A (A represents a pEC50 value≥7.5 (EC50≤32 nM))
Cc1cc(Nc2cc3ncccc3c(N[C@@H]3C[C@H]4CCC[C@@H](C3)N4C(=O)Cc3ccccc3)n2)n[nH]1 [Example 2-24] | did not exhibit a statistically significant decrease |  |  | B (B represents a pKi value between 9 and 10 (Ki between 1 nM and 0.1 nM)) | B (B represents a pKi value between 9 and 10 (Ki between 1 nM and 0.1 nM)) | BEAS2B pIC50 [2, 9]: A (A represents a pEC50 value≥7.5 (EC50≤32 nM)); THP-1 IL4 pIC50 [3, 10]: A (A represents a pEC50 value≥7.5 (EC50≤32 nM))
CCS(=O)(=O)N1[C@@H]2CC[C@H]1C[C@H](Nc1nc(Nc3cc(C)[nH]n3)cc3ncccc13)C2 [Example 7, N^5-((1R,3s,5S)-8-(ethylsulfonyl)-8-azabicyclo[3.2.1]octan-3-yl)-N^7-(5-methyl-1H-pyrazol-3-yl)-1,6-naphthyridine-5,7-diamine] | did not exhibit a statistically significant decrease | < 31.6 | < 31.6 |  |  | Ki (Tyk2): 0.1 to 1 nM; Ki (JAK2; [8]): 0.1 to 1 nM
Cc1cc(Nc2nc(N[C@@H]3C[C@H]4CCC[C@@H](C3)N4S(=O)(=O)c3ccccc3)c3cccnc3c2F)n[nH]1 [Example 8-11] |  |  |  | B (B represents a pKi value between 9 and 10 (Ki between 1 nM and 0.1 nM)) | B (B represents a pKi value between 9 and 10 (Ki between 1 nM and 0.1 nM)) | Tyk 2 (pKi) (Tyk2): C (C represents a pKi value between 7 and 9 (Ki between 100 nM and 1 nM)); BEAS2B pIC50 [2, 6]: A (A represents a pEC50 value≥7.5 (EC50≤32 nM)); JAK 3 (pKi) (JAK3): C (C represents a pKi value between 7 and 9 (Ki between 100 nM and 1 nM)); THP-1 IL4 pIC50 [3, 7]: B (B represents a pEC50 value between 6.7 and 7.5 (EC50 between 200 nM and 32 nM))
